Test results as given in ChEMBL document CHEMBL1201862, “PubChem BioAssay data set” (2004).
Active and inactive are the calls of the source.

Experiments:
[1] = target: T1, Sentrin-specific protease 6 (Homo sapiens, UniProt Q9GZR1); assay type: functional;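 also: Luminescence-based dose-response confirmatory assay of SENP6 inhibition, following up an ultra-high-throughput screen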
T1 sequence (Q9GZR1 whole entry): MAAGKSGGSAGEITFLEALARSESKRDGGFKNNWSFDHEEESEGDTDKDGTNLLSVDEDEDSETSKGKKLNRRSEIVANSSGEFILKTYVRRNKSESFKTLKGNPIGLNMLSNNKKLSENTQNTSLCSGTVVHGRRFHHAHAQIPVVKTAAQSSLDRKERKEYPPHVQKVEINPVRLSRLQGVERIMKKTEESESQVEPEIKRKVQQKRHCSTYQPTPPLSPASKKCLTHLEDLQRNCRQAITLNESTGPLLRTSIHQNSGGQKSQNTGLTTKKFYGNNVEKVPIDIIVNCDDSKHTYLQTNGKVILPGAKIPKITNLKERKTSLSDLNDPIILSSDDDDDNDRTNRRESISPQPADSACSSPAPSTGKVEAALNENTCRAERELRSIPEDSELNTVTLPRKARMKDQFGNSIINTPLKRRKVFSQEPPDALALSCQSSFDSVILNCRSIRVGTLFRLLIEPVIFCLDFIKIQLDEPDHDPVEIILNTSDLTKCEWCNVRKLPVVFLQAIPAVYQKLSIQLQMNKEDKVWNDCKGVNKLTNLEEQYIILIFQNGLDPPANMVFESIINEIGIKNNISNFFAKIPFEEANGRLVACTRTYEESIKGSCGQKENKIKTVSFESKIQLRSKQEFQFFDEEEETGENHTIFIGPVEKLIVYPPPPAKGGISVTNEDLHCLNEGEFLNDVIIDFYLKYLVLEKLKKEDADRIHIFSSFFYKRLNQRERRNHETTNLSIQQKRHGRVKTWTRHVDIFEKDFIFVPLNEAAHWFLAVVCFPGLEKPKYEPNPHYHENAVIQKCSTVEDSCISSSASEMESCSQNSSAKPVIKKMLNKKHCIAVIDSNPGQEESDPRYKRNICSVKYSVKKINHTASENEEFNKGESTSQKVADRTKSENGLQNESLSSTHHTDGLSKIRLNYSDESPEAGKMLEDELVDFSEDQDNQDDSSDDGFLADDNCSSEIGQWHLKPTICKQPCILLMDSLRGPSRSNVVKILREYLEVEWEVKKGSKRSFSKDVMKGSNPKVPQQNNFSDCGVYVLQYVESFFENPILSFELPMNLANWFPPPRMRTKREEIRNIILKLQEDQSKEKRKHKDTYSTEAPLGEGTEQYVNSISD

[2] = target: T2, Sentrin-specific protease 8 (Homo sapiens, UniProt Q96LD8); assay type: functional;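 also: luminescence read-out of SENP8 inhibition, dose-response confirmation following an ultra-high-throughput screen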
T2 sequence (Q96LD8 whole entry): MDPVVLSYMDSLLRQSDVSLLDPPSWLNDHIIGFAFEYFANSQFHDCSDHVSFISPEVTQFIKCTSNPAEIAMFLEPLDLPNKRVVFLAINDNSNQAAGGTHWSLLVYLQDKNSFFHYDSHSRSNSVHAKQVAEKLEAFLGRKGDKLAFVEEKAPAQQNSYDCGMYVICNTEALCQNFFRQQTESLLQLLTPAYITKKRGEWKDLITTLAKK

[3] = target: T2, Sentrin-specific protease 8; assay: inhibition of human SENP8 cleavage activity – biochemical, luminescence, SAR follow-up (AID 504501); assay type: functional
[4] = target: T3, SUMO-activating enzyme (Homo sapiens, UniProt Q9UBT2); assay: blockers of SAE1/SAE2–UBC9 SUMO transfer – biochemical, HTRF, uHTS, primary screen (AID 2006); assay type: protein-complex assay
[5] = target: Peroxisome proliferator-activated receptor gamma/Nuclear receptor corepressor 2 (Homo sapiens, UniProt P37231+Q9Y618); assay type: functional
[6] = target: T3, SUMO-activating enzyme; assay: blockers of UBC9-mediated SUMO conjugation – biochemical, AlphaScreen, SUMOylation inhibitor project, confirmation (AID 2018); assay type: functional
[7] = target: ALK tyrosine kinase receptor (Homo sapiens, UniProt Q9UM73); assay type: functional;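 also: ALK tested as one member of a kinase panel screen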
[8] = target: Leukocyte tyrosine kinase receptor (Homo sapiens, UniProt P29376); assay: Navigating the Kinome. Panel member name: LTK; assay type: functional
[9] = target: Protein kinase C gamma type (Homo sapiens, UniProt P05129); assay type: functional
[10] = target: MAP kinase-activated protein kinase 3 (Homo sapiens, UniProt Q16644); assay type: functional;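 also: value comes from a kinome-wide profiling panel in which MAPKAPK3 is one of the panel members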
[11] = target: Serine/threonine-protein kinase DCLK1 (Homo sapiens, UniProt O15075); assay type: functional;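 also: affinity for DCLK1 (listed as DCAMKL1) measured as one member of a kinome-wide kinase profiling panel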
[12] = target: Activin receptor type-1 (Homo sapiens, UniProt Q04771); assay: Navigating the Kinome. Panel member name: ACVR1; assay type: functional
[13] = target: Receptor tyrosine-protein kinase erbB-4 (Homo sapiens, UniProt Q15303); assay type: functional;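 also: ERBB4 member of a kinome-wide kinase profiling panel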
[14] = target: MAP kinase-activated protein kinase 2 (Homo sapiens, UniProt P49137); assay type: functional;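 also: measured as one member of a kinome-wide kinase panel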
[15] = target: Tyrosine-protein kinase receptor TYRO3 (Homo sapiens, UniProt Q06418); assay type: functional;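 also: TYRO3 value obtained as one member of a kinome-wide profiling panel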
[16] = target: Protein-tyrosine kinase 2-beta (Homo sapiens, UniProt Q14289); assay type: functional
[17] = target: Activated CDC42 kinase 1 (Homo sapiens, UniProt Q07912); assay: Navigating the Kinome. Panel member name: ACK1; assay type: functional
[18] = target: Mast/stem cell growth factor receptor Kit (Homo sapiens, UniProt P10721); assay type: functional;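 also: KIT entry within a kinase panel assay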
[19] = target: Protein kinase C zeta type (Homo sapiens, UniProt Q05513); assay type: functional;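 also: measured as one member of a broad kinase profiling panel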
[20] = target: 3-phosphoinositide-dependent protein kinase 1 (Homo sapiens, UniProt O15530); assay type: functional;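 also: value comes from the Navigating the Kinome panel, PDPK1 member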
[21] = target: Phosphorylase b kinase gamma catalytic chain, liver/testis isoform (Homo sapiens, UniProt P15735); assay type: functional;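 also: PHKG2 measured as one member of a kinome-wide kinase panel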
[22] = target: Tyrosine-protein kinase BTK (Homo sapiens, UniProt Q06187); assay type: functional
[23] = target: Proto-oncogene tyrosine-protein kinase Src (Homo sapiens, UniProt P12931); assay type: functional;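 also: SRC entry within a kinome-wide kinase profiling panel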
[24] = target: Insulin receptor (Homo sapiens, UniProt P06213); assay type: functional;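 also: insulin receptor kinase tested as one member of a kinome-wide kinase panel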
[25] = target: cAMP-dependent protein kinase catalytic subunit PRKX (Homo sapiens, UniProt P51817); assay type: functional
[26] = target: Ribosomal protein S6 kinase alpha-5 (Homo sapiens, UniProt O75582); assay type: functional
[27] = target: MAP kinase-activated protein kinase 5 (Homo sapiens, UniProt Q8IW41); assay type: functional;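 also: measured as one member of a kinome panel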
[28] = target: Macrophage-stimulating protein receptor (Homo sapiens, UniProt Q04912); assay: Navigating the Kinome. Panel member name: MST1R; assay type: functional

T3 sequence (Q9UBE0 whole entry): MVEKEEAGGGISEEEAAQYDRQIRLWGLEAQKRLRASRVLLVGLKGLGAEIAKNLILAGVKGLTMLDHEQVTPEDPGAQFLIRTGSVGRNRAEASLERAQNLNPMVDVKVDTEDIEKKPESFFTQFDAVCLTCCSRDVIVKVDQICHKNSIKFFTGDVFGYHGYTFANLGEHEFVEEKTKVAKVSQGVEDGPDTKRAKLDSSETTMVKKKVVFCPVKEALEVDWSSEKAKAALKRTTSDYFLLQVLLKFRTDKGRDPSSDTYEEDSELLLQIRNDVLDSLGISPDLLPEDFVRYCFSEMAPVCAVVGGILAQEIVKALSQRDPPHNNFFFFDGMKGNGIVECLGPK
T3 sequence (Q9UBT2 whole entry): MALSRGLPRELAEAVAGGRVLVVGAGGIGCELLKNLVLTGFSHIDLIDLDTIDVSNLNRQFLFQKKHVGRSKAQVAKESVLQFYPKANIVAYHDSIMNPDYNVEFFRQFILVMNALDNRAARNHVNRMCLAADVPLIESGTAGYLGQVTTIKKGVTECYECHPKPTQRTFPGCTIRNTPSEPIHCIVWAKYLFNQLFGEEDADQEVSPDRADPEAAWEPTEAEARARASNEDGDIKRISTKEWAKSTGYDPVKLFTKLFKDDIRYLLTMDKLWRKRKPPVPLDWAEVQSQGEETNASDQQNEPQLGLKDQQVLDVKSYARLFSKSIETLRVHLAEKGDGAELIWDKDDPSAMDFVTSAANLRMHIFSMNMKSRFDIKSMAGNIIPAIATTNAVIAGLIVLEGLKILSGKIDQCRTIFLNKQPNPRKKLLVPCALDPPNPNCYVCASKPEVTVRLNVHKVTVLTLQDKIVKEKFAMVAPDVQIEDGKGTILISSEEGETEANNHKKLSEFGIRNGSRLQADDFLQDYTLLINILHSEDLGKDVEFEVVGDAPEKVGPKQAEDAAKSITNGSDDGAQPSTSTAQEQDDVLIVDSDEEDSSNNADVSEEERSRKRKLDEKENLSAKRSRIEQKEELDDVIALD
Sequence of Mast/stem cell growth factor receptor Kit (P10721 whole entry): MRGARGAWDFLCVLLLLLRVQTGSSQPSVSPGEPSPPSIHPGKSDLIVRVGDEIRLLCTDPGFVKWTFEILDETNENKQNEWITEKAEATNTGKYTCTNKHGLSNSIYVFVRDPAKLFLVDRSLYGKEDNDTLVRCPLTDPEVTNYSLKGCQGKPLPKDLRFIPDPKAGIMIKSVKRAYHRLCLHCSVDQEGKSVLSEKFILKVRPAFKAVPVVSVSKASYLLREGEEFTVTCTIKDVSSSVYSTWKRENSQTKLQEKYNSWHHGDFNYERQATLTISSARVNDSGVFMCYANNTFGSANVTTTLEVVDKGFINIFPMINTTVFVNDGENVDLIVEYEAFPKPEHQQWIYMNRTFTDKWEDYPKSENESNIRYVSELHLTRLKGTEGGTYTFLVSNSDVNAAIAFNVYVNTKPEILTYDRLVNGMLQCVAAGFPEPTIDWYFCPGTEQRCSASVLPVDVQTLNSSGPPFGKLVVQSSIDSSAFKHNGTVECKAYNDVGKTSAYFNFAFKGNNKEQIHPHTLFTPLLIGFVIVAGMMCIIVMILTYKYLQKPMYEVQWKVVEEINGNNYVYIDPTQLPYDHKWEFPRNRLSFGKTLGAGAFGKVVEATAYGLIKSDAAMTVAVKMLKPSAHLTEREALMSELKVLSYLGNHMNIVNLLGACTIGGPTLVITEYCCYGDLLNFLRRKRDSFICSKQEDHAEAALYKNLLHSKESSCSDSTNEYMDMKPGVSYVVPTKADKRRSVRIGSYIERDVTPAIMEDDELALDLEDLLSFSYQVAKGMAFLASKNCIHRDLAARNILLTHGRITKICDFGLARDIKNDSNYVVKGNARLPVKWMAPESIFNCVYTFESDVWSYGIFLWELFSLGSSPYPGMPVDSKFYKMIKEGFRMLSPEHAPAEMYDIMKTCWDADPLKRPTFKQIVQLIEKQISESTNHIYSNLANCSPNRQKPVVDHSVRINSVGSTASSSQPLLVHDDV
Sequence of Protein kinase C zeta type (Q05513 whole entry): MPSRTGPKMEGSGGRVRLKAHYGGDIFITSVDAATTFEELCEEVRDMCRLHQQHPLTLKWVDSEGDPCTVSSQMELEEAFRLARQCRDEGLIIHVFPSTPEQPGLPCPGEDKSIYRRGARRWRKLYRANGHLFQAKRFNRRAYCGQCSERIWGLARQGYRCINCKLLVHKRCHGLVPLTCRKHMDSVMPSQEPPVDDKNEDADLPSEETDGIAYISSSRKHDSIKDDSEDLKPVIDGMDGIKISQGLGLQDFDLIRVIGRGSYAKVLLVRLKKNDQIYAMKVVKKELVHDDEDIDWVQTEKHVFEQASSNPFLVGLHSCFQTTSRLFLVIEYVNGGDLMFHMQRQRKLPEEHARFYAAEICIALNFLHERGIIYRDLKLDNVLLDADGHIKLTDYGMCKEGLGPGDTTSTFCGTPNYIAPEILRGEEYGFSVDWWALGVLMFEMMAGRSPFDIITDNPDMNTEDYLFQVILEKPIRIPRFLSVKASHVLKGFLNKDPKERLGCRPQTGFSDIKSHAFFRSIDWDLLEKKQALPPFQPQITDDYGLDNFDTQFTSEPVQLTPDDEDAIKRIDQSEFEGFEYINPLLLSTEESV
Sequence of Receptor tyrosine-protein kinase erbB-4 (Q15303 whole entry): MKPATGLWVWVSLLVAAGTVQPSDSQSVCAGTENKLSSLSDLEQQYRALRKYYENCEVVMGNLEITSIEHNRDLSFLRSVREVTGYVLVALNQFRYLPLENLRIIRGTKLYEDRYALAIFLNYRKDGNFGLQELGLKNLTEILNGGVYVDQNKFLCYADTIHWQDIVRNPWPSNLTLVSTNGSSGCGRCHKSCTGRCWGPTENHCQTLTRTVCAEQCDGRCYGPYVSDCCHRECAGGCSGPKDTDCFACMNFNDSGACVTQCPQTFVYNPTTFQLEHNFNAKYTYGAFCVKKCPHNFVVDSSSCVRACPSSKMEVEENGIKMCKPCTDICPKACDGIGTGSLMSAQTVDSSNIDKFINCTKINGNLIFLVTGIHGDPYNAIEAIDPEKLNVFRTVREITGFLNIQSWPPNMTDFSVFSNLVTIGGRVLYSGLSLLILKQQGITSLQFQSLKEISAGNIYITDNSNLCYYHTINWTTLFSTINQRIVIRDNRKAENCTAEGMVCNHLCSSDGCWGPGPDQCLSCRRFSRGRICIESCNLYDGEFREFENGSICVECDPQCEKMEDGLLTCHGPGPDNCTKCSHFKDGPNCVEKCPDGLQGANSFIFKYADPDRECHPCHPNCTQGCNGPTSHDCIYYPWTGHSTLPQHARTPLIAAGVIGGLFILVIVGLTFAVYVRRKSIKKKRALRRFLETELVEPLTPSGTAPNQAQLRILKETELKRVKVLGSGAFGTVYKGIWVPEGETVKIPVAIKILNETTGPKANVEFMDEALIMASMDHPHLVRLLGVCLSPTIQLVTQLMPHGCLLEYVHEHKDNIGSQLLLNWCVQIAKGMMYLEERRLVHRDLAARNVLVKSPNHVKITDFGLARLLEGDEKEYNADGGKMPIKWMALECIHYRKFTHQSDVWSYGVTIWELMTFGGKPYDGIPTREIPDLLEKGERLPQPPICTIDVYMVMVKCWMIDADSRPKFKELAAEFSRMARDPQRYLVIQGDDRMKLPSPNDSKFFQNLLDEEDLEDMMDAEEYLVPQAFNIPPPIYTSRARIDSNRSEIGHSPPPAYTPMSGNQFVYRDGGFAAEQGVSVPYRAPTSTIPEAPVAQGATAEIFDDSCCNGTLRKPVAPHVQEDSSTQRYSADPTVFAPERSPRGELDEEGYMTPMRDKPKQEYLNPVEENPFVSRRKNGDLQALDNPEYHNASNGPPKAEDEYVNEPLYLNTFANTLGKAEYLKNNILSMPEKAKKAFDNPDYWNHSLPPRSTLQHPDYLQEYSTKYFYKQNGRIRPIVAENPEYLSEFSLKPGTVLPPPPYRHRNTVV
Sequence of Serine/threonine-protein kinase DCLK1 (O15075 whole entry): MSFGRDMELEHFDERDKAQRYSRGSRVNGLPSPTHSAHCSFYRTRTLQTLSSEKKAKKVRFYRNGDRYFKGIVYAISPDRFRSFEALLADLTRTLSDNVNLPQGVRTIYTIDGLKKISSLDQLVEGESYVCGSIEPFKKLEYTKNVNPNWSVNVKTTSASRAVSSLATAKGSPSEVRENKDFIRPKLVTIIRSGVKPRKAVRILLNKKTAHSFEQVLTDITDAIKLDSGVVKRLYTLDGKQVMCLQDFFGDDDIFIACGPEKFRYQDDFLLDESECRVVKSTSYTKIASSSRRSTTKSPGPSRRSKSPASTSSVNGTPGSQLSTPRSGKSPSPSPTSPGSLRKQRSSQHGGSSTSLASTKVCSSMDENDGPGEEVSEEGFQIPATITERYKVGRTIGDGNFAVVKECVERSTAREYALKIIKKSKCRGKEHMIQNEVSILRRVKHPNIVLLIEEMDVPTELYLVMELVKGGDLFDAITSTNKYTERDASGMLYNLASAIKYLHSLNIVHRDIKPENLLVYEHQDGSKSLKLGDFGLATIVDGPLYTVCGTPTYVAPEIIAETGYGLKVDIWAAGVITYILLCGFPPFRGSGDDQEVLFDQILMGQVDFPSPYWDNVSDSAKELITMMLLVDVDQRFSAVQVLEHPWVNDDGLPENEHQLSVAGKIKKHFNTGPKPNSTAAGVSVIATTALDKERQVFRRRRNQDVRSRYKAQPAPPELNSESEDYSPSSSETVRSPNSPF
Sequence of MAP kinase-activated protein kinase 2 (P49137 whole entry): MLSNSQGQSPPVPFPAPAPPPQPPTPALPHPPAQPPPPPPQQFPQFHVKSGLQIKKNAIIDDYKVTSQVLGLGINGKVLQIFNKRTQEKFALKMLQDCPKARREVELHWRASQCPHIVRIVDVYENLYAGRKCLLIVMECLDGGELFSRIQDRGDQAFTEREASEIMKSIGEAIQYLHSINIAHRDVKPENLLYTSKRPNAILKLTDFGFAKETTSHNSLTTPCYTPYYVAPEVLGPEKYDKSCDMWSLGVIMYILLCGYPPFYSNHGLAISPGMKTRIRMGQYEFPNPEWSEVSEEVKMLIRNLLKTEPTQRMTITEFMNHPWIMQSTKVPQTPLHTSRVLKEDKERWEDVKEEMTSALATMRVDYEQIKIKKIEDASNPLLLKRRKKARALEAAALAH

Cc1c(NC(=O)C(C)OC(=O)c2ccc([N+](=O)[O-])s2)c(=O)n(-c2ccccc2)n1C (stereo not drawn)
IC50 [1]: 7.32 µM (active)
IC50 [2]: 6.5 µM (active)

COc1cc(Br)c(C(=O)c2nccc3cc(OC)c(OC)cc23)cc1OC
IC50 [3]: 35.6 µM (active)
IC50 [4]: 12.8 µM (active)
IC50 [5]: > 39.8 µM (not active)
IC50 [6]: 0.42 µM (active)

CC(N)C1CCC(C(=O)Nc2ccnc3[nH]ccc23)CC1 (stereo not drawn)
Ki [7]: 2 µM (active)
Ki [8]: 0.398 µM (active)
Ki [9]: 2.51 µM (active)
Ki [10]: > 10 µM (inactive)
Ki [11]: > 10 µM (inactive)
Ki [12]: 1 µM (active)
Ki [13]: > 3.98 µM (inactive)
Ki [14]: > 7.94 µM (inactive)
Ki [15]: > 2.51 µM (inactive)
Ki [16]: > 1.58 µM (inactive)
Ki [17]: > 3.98 µM (inactive)
Ki [18]: > 1.26 µM (inactive)
Ki [19]: > 7.94 µM (inactive)
Ki [20]: 0.631 µM (active)
Ki [21]: > 5.01 µM (inactive)
Ki [22]: > 3.98 µM (inactive)
Ki [23]: > 2 µM (inactive)
Ki [24]: > 5.01 µM (inactive)
Ki [25]: 0.501 µM (active)
Ki [26]: 0.631 µM (active)
Ki [27]: > 1.58 µM (inactive)
Ki [28]: 2 µM (active)
